Source: US9409907B2, “Inhibitor compounds” (Cancer Research Technology Limited, priority 2012, dated 2016)

target: full length MPS1 (Homo sapiens (Human), UniProt P33981); assay: Measurement of inhibition of MPS1 kinase (Caliper EZ reader mobility-shift enzyme assay); type: biochemical; conditions: full length MPS1 12.5 nM or 3 nM, H236 peptide 5 μM, ATP 10 μM, 60 min at room temperature
Method: Measurement of Inhibition of MPS1 Kinase
The reaction was carried out for 60 min at room temperature and stopped by the addition of buffer (10 μl) containing 20 mM EDTA, 0.05% (v/v) Brij-35, in 0.1M HEPES-buffered saline (Free acid, Sigma, UK). The plate was read on a Caliper EZ reader II (Caliper Life Sciences).
The % inhibition of the compounds is calculated relative to the means of selected control wells.

Sequence of full length MPS1 (P33981 whole entry): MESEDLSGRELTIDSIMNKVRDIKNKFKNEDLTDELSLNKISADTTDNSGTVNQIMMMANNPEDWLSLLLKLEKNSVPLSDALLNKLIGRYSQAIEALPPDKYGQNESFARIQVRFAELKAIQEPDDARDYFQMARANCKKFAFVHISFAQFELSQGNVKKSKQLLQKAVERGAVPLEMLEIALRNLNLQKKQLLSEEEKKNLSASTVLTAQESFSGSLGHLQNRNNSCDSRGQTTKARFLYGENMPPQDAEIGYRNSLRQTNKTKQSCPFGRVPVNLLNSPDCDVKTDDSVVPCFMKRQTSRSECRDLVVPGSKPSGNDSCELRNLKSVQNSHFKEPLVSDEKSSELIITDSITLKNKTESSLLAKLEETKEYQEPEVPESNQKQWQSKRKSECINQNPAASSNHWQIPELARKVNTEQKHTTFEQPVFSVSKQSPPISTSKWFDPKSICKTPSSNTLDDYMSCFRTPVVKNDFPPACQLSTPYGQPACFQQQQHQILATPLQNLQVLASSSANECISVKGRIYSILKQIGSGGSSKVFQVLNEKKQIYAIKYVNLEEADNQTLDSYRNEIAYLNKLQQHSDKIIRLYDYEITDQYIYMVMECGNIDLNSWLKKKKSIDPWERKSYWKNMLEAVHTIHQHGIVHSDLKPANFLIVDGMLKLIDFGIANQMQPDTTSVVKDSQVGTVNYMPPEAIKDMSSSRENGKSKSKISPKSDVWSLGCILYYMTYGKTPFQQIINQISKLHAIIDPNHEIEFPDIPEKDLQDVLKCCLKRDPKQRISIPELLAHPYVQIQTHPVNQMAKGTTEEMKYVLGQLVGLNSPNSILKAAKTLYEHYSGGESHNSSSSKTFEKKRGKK

IC50 [nM] | Structure (SMILES)
6 | COc1cc(-c2cnc(C)n2C)ccc1Nc1cc2c(-c3cnn(C)c3)cccc2cn1 [Example 10, N-(4-(1,2-dimethyl-1H-imidazol-5-yl)-2-methoxyphenyl)-5-(1-methyl-1H-pyrazol-4-yl)isoquinolin-3-amine]
6 | Cc1ncc(-c2ccc(Nc3cc4c(-c5cnn(C)c5)cccc4cn3)c(Cl)c2)n1C [Example 11, N-(2-chloro-4-(1,2-dimethyl-1H-imidazol-5-yl)phenyl)-5-(1-methyl-1H-pyrazol-4-yl)isoquinolin-3-amine]
12 | COc1cc(C(=O)N2CC(OC)C2)ccc1Nc1cc2c(-c3cnn(C)c3C)cccc2cn1 [Example 13, (4-((5-(1,5-dimethyl-1H-pyrazol-4-yl)isoquinolin-3-yl)amino)-3-methoxyphenyl)(3-methoxyazetidin-1-yl)methanone]
7 | COc1cc(-c2cncn2C)ccc1Nc1cc2c(-c3cnn(C)c3)cccc2cn1 [Example 14, N-(2-methoxy-4-(1-methyl-1H-imidazol-5-yl)phenyl)-5-(1-methyl-1H-pyrazol-4-yl)isoquinolin-3-amine]
98 | COc1cc(C(=O)N2CC(OC)C2)ccc1Nc1cc2c(-c3cncnc3)cccc2cn1 [Example 15, (3-methoxy-4-((5-(pyrimidin-5-yl)isoquinolin-3-yl)amino)phenyl)(3-methoxyazetidin-1-yl)methanone]
71 | COc1cc(-c2cnn(C)c2)ccc1Nc1cc2c(-c3cnn(C)c3)cccc2cn1 [Example 16, N-(2-methoxy-4-(1-methyl-1H-pyrazol-4-yl)phenyl)-5-(1-methyl-1H-pyrazol-4-yl)isoquinolin-3-amine]
51 | Cn1cc(-c2cccc3cnc(Nc4ccc(-c5cncn5C)cc4Cl)cc23)cn1 [Example 17, N-(2-chloro-4-(1-methyl-1H-imidazol-5-yl)phenyl)-5-(1-methyl-1H-pyrazol-4-yl)isoquinolin-3-amine]
95 | COc1cc(-c2c(C)noc2C)ccc1Nc1cc2c(-c3cnn(C)c3)cccc2cn1 [Example 18, N-(4-(3,5-dimethylisoxazol-4-yl)-2-methoxyphenyl)-5-(1-methyl-1H-pyrazol-4-yl)isoquinolin-3-amine]
31 | COc1cc(C(=O)N2CC(OC)C2)ccc1Nc1cc2c(-c3cnn(C4CCN(C)CC4)c3)cccc2cn1 [Example 19, (3-Methoxy-4-((5-(1-(1-methylpiperidin-4-yl)-1H-pyrazol-4-yl)isoquinolin-3-yl)amino)phenyl)(3-methoxyazetidin-1-yl)methanone]
20 | COc1cc(C(=O)N2CC(OC)C2)ccc1Nc1cc2c(-c3cnn(C4CCNCC4)c3)cccc2cn1 [Example 20, (3-Methoxy-4-((5-(1-(piperidin-4-yl)-1H-pyrazol-4-yl)isoquinolin-3-yl)amino)phenyl)(3-methoxyazetidin-1-yl)methanone]
30 | COc1cc(C(=O)N2CC(OC)C2)ccc1Nc1cc2c(-c3cccnc3)cccc2cn1 [Example 21, (3-Methoxy-4-((5-(pyridin-3-yl)isoquinolin-3-yl)amino)phenyl)(3-methoxyazetidin-1-yl)methanone]
100 | COC1CN(C(=O)c2ccc(Nc3cc4c(-c5cnn(C)c5)cccc4cn3)c(Cl)c2)C1 [Example 22]
225 | Cn1cc(-c2ccc(Nc3cc4c(-c5cnn(C)c5)cccc4cn3)c(Cl)c2)cn1 [Example 23]
20 | COc1cc(C(=O)N2CC(OC)C2)ccc1Nc1cc2c(-c3cnn(C)c3)cccc2cn1 [Example 24]
28 | COc1cc(C(=O)N(C)C)ccc1Nc1cc2c(-c3cnn(C)c3)cccc2cn1 [Example 25]
78 | CN(C)C(=O)c1ccc(Nc2cc3c(-c4cnn(C)c4)cccc3cn2)c(Cl)c1 [Example 26]
17 | COc1cc(OC2CCN(C)CC2)ccc1Nc1cc2c(-c3cnn(C)c3)cccc2cn1 [Example 29, N-(2-Methoxy-4-((1-methylpiperidin-4-yl)oxy)phenyl)-5-(1-methyl-1H-pyrazol-4-yl)isoquinolin-3-amine]
100 | COc1cc(-c2cnn(C)c2)c(C)cc1Nc1ncc2ccnc(-c3cnn(C)c3)c2n1 [Example 36]

IC50 [nM] | Structure (SMILES)
7 | COc1cc(-c2cnn(C)c2)ccc1Nc1ncc2ccnc(NC3CCCC3)c2n1 [Example 39]
4 | COc1cc(-c2cnc(C)n2C)ccc1Nc1ncc2ccnc(-c3cnn(C)c3)c2n1 [Example 40, N-(4-(1,2-dimethyl-1H-imidazol-5-yl)-2-methoxyphenyl)-8-(1-methyl-1H-pyrazol-4-yl)pyrido[3,4-d]pyrimidin-2-amine]
3 | COc1cc(-c2cnn(CCN3CCN(C)CC3)c2)ccc1Nc1ncc2ccnc(NC3CCCCC3)c2n1 [Example 41, N^8-cyclohexyl-N2-(2-methoxy-4-(1-(2-(4-methylpiperazin-1-yl)ethyl)-1H-pyrazol-4-yl)phenyl)pyrido[3,4-d]pyrimidine-2,8-diamine]
14 | COc1cc(-c2cnn(CCO)c2)ccc1Nc1ncc2ccnc(NC3CCCCC3)c2n1 [Example 43, 2-(4-(4-((8-(cyclohexylamino)pyrido[3,4-d]pyrimidin-2-yl)amino)-3-methoxyphenyl)-1H-pyrazol-1-yl)ethanol]
3 | COc1cc(-c2cnn(CCO)c2)ccc1Nc1ncc2ccnc(NC3CCOCC3)c2n1 [Example 44, 2-(4-(3-methoxy-4-((8-((tetrahydro-2H-pyran-4-yl)amino)pyrido[3,4-d]pyrimidin-2-yl)amino)phenyl)-1H-pyrazol-1-yl)ethanol]
13 | COc1nc(N2CCOCC2)ccc1Nc1ncc2ccnc(NCC(C)(C)C)c2n1 [Example 45, N^2-(2-methoxy-6-morpholinopyridin-3-yl)-N8-neopentylpyrido[3,4-d]pyrimidine-2,8-diamine]
17 | COc1nc(S(C)(=O)=O)ccc1Nc1ncc2ccnc(NCC(C)(C)C)c2n1 [Example 46, N2-(2-methoxy-6-(methylsulfonyl)pyridin-3-yl)-N8-neopentylpyrido[3,4-d]pyrimidine-2,8-diamine]
2 | COc1cc(-c2cncn2C)ccc1Nc1ncc2ccnc(NCC(C)(C)C)c2n1 [Example 47, N2-(2-methoxy-4-(1-methyl-1H-imidazol-5-yl)phenyl)-N8-neopentylpyrido[3,4-d]pyrimidine-2,8-diamine]
29 | COc1cc(-c2cnn(C)c2)ccc1Nc1ncc2cc(C)nc(NCC(C)(C)C)c2n1 [Example 51, N^2-(2-methoxy-4-(1-methyl-1H-pyrazol-4-yl)phenyl)-6-methyl-N8-neopentylpyrido[3,4-d]pyrimidine-2,8-diamine]
8 | COc1cc(N2CCOCC2)ccc1Nc1ncc2ccnc(NCC(C)(C)C)c2n1 [Example 52, N2-(2-methoxy-4-morpholinophenyl)-N8-neopentyprido[3,4-d]pyrimidine-2,8-diamine]
10 | COc1cc(-c2cnn(C)c2)ccc1Nc1ncc2ccnc(N3CCC(C)C3)c2n1 (stereo not drawn) [Example 56, N-(2-methoxy-4-(1-methyl-1H-pyrazol-4-yl)phenyl)-8-(3-methylpyrrolidin-1-yl)pyrido[3,4-d]pyrimidin-2-amine]
12 | COc1cc(-c2cnn(C)c2)ccc1Nc1ncc2ccnc(N3CCC(F)(F)C3)c2n1 [Example 57, 8-(3,3-difluoropyrroldin-1-yl)-N-(2-methoxy-4-(1-methyl-1H-pyrazol-4-yl)phenyl)pyrido[3,4-d]pyrimidin-2-amine]
45 | COc1cc(-c2cnn(C)c2)ccc1Nc1ncc2ccnc(N(C)C3CCCC3)c2n1 [Example 59, N8-cyclopentyl-N2-(2-methoxy-4-(1-methyl-1H-pyrazol-4-yl)phenyl)-N8-methylpyrido[3,4-d]pyrimidine-2,8-diamine]
21 | COc1cc(-c2cnn(C)c2)ccc1Nc1ncc2ccnc(NCCC(C)C)c2n1 [Example 60, N8-isopentyl-N2-(2-methoxy-4-(1-methyl-1H-pyrazol-4-yl)phenyl)pyrido[3,4-d]pyrimidine-2,8-diamine]
3 | COc1cc(-c2cnn(C)c2)ccc1Nc1ncc2ccnc(N3CCOCC3)c2n1 [Example 61, N-(2-methoxy-4-(1-methyl-1H-pyrazol-4-yl)phenyl)-8-morpholinopyrido[3,4-d]pyrimidin-2-amine]
9 | COc1cc(-c2cnn(C)c2)ccc1Nc1ncc2ccnc(N3CCN(C)CC3)c2n1 [Example 62, N-(2-methoxy-4-(1-methyl-1H-pyrazol-4-yl)phenyl)-8-(4-methylpiperazin-1-yl)pyrido[3,4-d]pyrimidin-2-amine]
8 | COc1cc(-c2cnn(C)c2)ccc1Nc1ncc2ccnc(N3CCC4(CCC4)C3)c2n1 [Example 66, N-(2-methoxy-4-(1-methyl-1H-pyrazol-4-yl)phenyl)-8-(6-azaspiro[3.4]octan-6-yl)pyrido[3,4-d]pyrimidin-2-amine]
10 | COc1cc(-c2cnn(C)c2)ccc1Nc1ncc2ccnc(N3CC(OC)C3)c2n1 [Example 67, N-(2-methoxy-4-(1-methyl-1H-pyrazol-4-yl)phenyl)-8-(3-methoxyazetidin-1-yl)pyrido[3,4-d]pyrimidin-2-amine]

Structure (SMILES) | IC50 [nM]
COc1cc(C(=O)N2CC(OC)C2)ccc1Nc1cc2c(-c3ccn(C)n3)cccc2cn1 [Example 12, (3-methoxy-4-((5-(1-methyl-1H-pyrazol-3-yl)isoquinolin-3-yl)amino)phenyl)(3-methoxyazetidin-1-yl)methanone] | 26
COc1cc(-c2cnc(C)n2C)ccc1Nc1ncc2ccnc(NCC(C)(C)C)c2n1 [Example 50, N2-(4-(1,2-dimethyl-1H-imidazol-5-yl)-2-methoxyphenyl)-N8-neopentylpyrido[3,4-d]pyrimidine-2,8-diamine] | 7
COc1cc(-c2cnn(C)c2)ccc1Nc1ncc2ccnc(N3CC(F)(F)C3)c2n1 [Example 63, 8-(3,3-difluoroazetidin-1-yl)-N-(2-methoxy-4-(1-methyl-1H-pyrazol-4-yl)phenyl)pyrido[3,4-d]pyrimidin-2-amine] | 25
